Consider 2 compounds from patent publication US8066985B2, “Reovirus for the treatment of cellular proliferative disorders” (Oncolytics Biotech Inc., priority 1999, dated 2011).

The test system of test [1] is NIH 3T3 cells. Nature of the test: 2-aminopurine effect on viral protein synthesis. The test is classed as cell-based, mouse. Conditions: 5 mM, concurrently with reovirus; label 12 to 48 h postinfection. The protocol:
To test this idea, 2-aminopurine was used. […] Accordingly, NIH 3T3 cells were exposed to 5 mM 2-aminopurine concurrently with exposure to reovirus. The cells were labeled with [^35S]methionine from 12 to 48 h postinfection, and lysates were harvested and analyzed by SDS-PAGE.

Test [2] deals with ERK1/2 phosphorylation. Description: PD98059 effect on ERK1/2 phosphorylation. The format is cell-based. The conditions noted are these: 50 μM. The text has this:
The PhosphoPlus p44/42 MAP kinase (Thr202/Tyr204) Antibody kit (New England Biolabs) was used for the detection of MAP kinase in cell lysates according to the manufacturer's instructions. Briefly, subconfluent monolayer cultures were lysed with the recommended SDS-containing sample buffer, and subjected to SDS-PAGE, followed by electroblotting onto nitrocellulose paper. The membrane was then probed with the primary antibody (anti-total MAPK or anti-phospho-MAPK), followed by the horseradish peroxidase (HRP)-conjugated secondary antibody as described in the manufacturer's instruction manual.
(§1) H-Ras-transformed cells were grown to 80% confluency and infected with reovirus at an MOI of approximately 10 p.f.u./cell. PD98059 (Calbiochem), dissolved in dimethylsulfoxide (DMSO), was applied to the cells at the same time as the virus (final concentration of PD98059 was 50 μM). The control cells received an equivalent volume of DMSO. The cells were labeled with ^35S-methionine from 12 to 48 hours post-infection. Lysates were then prepared, immunoprecipitated with the polyclonal anti-reovirus serotype 3 serum and analyzed by SDS-PAGE.
As expected, PD98059 had no effect on reovirus-induced PKR phosphorylation in untransformed NIH-3T3 cells (data not shown).

For test [3], the system named is H-Ras-transformed cells. Nature of the test: PD98059 effect on reovirus protein synthesis. Conditions: 50 μM, MOI approximately 10 p.f.u./cell, label 12 to 48 hours. The test is classed as cell-based. The protocol:
as §1

Test [4] relates to PKR. Description: PD98059 effect on PKR phosphorylation. The test is classed as cell-based.

“Also recorded” adds a separate entry of the source.

With `Nc1ncc2[nH]cnc2n1` [2-aminopurine], the “level of viral protein synthesis” value in test [1] is reported as “significantly higher level of viral protein synthesis; also recorded: drastic enhancement of reovirus protein synthesis”.
`COc1cccc(-c2cc(=O)c3ccccc3o2)c1N` [PD98059]: the ERK1/2 phosphorylation entry in test [2] is listed as “effectively inhibited ERK1/2 phosphorylation”. Also, in test [3], the “effect on viral protein synthesis” value is recorded as “slight enhancement of viral protein synthesis” and the “inhibition of reovirus protein synthesis” value is reported as “did not inhibit reovirus protein synthesis”. The PKR phosphorylation state entry in test [4] (infected H-Ras-transformed cells, 50 μM) was “remained unphosphorylated”. Moreover, the “effect on reovirus-induced PKR phosphorylation” value in test [4] (untransformed NIH-3T3 cells) is listed as “no effect”.
